Test results from PubChem BioAssay (NCI).
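Dose response: 5 concentrations. Exposure: 48 h. Format: 96-well plates. Endpoint: linear interpolation; highest concentration if not reached. TGI: concentration producing complete growth inhibition.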

Tests used:
Experiment in all cases: NCI tumour cell line growth inhibition, 48 h
[1] = test system: UACC-257 melanoma
[2] = test system: MCF7 breast
[3] = test system: DLD-1 colon
[4] = test system: P388 leukemia
[5] = test system: OVCAR-3 ovarian
[6] = test system: SN12K1 renal
[7] = test system: SNB-78 CNS
[8] = test system: SK-MEL-5 melanoma
[9] = test system: COLO 205 colon
[10] = test system: NCI-H226 lung
[11] = test system: HOP-62 NSCLC
[12] = test system: EKVX NSCLC
[13] = test system: K-562 leukemia
[14] = test system: DMS 114 small cell lung
[15] = test system: SK-OV-3 ovarian
[16] = test system: HT29 colon
[17] = test system: OVCAR-5 ovarian
[18] = test system: UO-31 renal
[19] = test system: LOX IMVI melanoma
[20] = test system: SF-268 CNS
[21] = test system: A498 renal
[22] = test system: MALME-3M melanoma
[23] = test system: SK-MEL-2 melanoma
[24] = test system: HOP-92 NSCLC
[25] = test system: SF-539 CNS
[26] = test system: KM20L2 colon
[27] = test system: M19-MEL melanoma
[28] = test system: SK-MEL-28 melanoma
[29] = test system: NCI-H522 lung
[30] = test system: NCI-H460 lung
[31] = test system: RXF 393 renal
[32] = test system: A549 NSCLC
[33] = test system: HL-60(TB) leukemia
[34] = test system: SN12C renal
[35] = test system: SW-620 colon
[36] = test system: NCI/ADR-RES ovarian
[37] = test system: SNB-75 CNS
[38] = test system: HCT-15 colon
[39] = test system: HOP-18 NSCLC
[40] = test system: HCT-116 colon
[41] = test system: U251 CNS
[42] = test system: MOLT-4 leukemia
[43] = test system: OVCAR-4 ovarian
[44] = test system: UACC-62 melanoma
[45] = test system: HCC-2998 colon
[46] = test system: XF 498 CNS
[47] = test system: CCRF-CEM leukemia
[48] = test system: DMS 273 small cell lung
[49] = test system: SNB-19 CNS
[50] = test system: IGROV1 ovarian
[51] = test system: SF-295 CNS
[52] = test system: KM12 colon
[53] = test system: NCI-H23 lung
[54] = test system: RPMI-8226 leukemia
[55] = test system: OVCAR-8 ovarian

Q: With COc1cc([C@@H]2c3cc4c(c(O[C@@H]5O[C@H]6CO[C@@H](C)O[C@H]6[C@H](O)[C@@H]5O)c3C[C@H]3COC(=O)[C@@H]32)OCO4)cc(OC)c1O as the compound, how does the TGI [1] read?
A: The TGI was over 100 µM.

Q: And the TGI [2]?
A: The TGI was over 100 µM.

Q: What about the TGI [3] of the same compound?
A: The TGI was over 100 µM.

Q: And the TGI [4]?
A: Its TGI is 4.82 µM.

Q: What about the TGI [5] of the same compound?
A: Its TGI is 20.6 µM.

Q: And the TGI [6]?
A: Its TGI is over 45.1 µM.

Q: And the TGI [7]?
A: The TGI was over 100 µM.

Q: What about the TGI [8] of the same compound?
A: The TGI was over 100 µM.

Q: What about the TGI [9] of the same compound?
A: The TGI was over 100 µM.

Q: And the TGI [10]?
A: The TGI was 20.8 µM.

Q: What about the TGI [11] of the same compound?
A: The TGI was over 100 µM.

Q: And the TGI [12]?
A: Its TGI is over 100 µM.

Q: And the TGI [13]?
A: The TGI was over 100 µM.

Q: What about the TGI [14] of the same compound?
A: Its TGI is over 31.1 µM.

Q: What about the TGI [15] of the same compound?
A: The TGI was over 92.9 µM.

Q: And the TGI [16]?
A: Its TGI is over 100 µM.

Q: What about the TGI [17] of the same compound?
A: The TGI was over 100 µM.

Q: What about the TGI [18] of the same compound?
A: The TGI was over 100 µM.

Q: And the TGI [19]?
A: The TGI was over 100 µM.

Q: And the TGI [20]?
A: Its TGI is over 79.5 µM.

Q: And the TGI [21]?
A: Its TGI is over 100 µM.

Q: What about the TGI [22] of the same compound?
A: The TGI was over 100 µM.

Q: And the TGI [23]?
A: Its TGI is over 100 µM.

Q: And the TGI [24]?
A: Its TGI is over 100 µM.

Q: What about the TGI [25] of the same compound?
A: The TGI was 7.79 µM.

Q: What about the TGI [26] of the same compound?
A: Its TGI is over 100 µM.

Q: And the TGI [27]?
A: The TGI was over 100 µM.

Q: What about the TGI [28] of the same compound?
A: The TGI was over 100 µM.

Q: And the TGI [29]?
A: Its TGI is 6.42 µM.

Q: What about the TGI [30] of the same compound?
A: The TGI was over 100 µM.

Q: And the TGI [31]?
A: The TGI was over 100 µM.

Q: And the TGI [32]?
A: The TGI was over 100 µM.

Q: And the TGI [33]?
A: Its TGI is over 38.9 µM.

Q: And the TGI [34]?
A: The TGI was over 100 µM.

Q: What about the TGI [35] of the same compound?
A: Its TGI is over 100 µM.

Q: And the TGI [36]?
A: Its TGI is 37.1 µM.

Q: What about the TGI [37] of the same compound?
A: Its TGI is over 100 µM.

Q: What about the TGI [38] of the same compound?
A: The TGI was over 100 µM.

Q: And the TGI [39]?
A: The TGI was over 100 µM.

Q: What about the TGI [40] of the same compound?
A: The TGI was over 44.6 µM.

Q: And the TGI [41]?
A: The TGI was over 46.8 µM.

Q: What about the TGI [42] of the same compound?
A: Its TGI is over 100 µM.

Q: And the TGI [43]?
A: The TGI was over 53.3 µM.

Q: And the TGI [44]?
A: Its TGI is over 100 µM.

Q: What about the TGI [45] of the same compound?
A: Its TGI is over 81.1 µM.

Q: What about the TGI [46] of the same compound?
A: The TGI was over 100 µM.

Q: And the TGI [47]?
A: Its TGI is over 100 µM.

Q: And the TGI [48]?
A: Its TGI is over 100 µM.

Q: What about the TGI [49] of the same compound?
A: The TGI was over 100 µM.

Q: And the TGI [50]?
A: Its TGI is over 100 µM.

Q: What about the TGI [51] of the same compound?
A: The TGI was 22.5 µM.

Q: What about the TGI [52] of the same compound?
A: The TGI was over 79.6 µM.

Q: And the TGI [53]?
A: Its TGI is over 100 µM.

Q: What about the TGI [54] of the same compound?
A: Its TGI is over 100 µM.

Q: What about the TGI [55] of the same compound?
A: The TGI was over 100 µM.
